Earlier results in patent US20240226070A1, “URAT1 INHIBITOR, PHARMACEUTICAL COMPOSITIONS AND USES THEREOF” (UR-1 Therapeutics, Inc., priority 2021, published 2024).

Tests used:
[1] = target: T1, ATP-binding cassette subfamily G member 2 (ABCG2) (Homo sapiens, UniProt Q9UNQ0); conditions: in vitro
T1 sequence (Q9UNQ0 1-655): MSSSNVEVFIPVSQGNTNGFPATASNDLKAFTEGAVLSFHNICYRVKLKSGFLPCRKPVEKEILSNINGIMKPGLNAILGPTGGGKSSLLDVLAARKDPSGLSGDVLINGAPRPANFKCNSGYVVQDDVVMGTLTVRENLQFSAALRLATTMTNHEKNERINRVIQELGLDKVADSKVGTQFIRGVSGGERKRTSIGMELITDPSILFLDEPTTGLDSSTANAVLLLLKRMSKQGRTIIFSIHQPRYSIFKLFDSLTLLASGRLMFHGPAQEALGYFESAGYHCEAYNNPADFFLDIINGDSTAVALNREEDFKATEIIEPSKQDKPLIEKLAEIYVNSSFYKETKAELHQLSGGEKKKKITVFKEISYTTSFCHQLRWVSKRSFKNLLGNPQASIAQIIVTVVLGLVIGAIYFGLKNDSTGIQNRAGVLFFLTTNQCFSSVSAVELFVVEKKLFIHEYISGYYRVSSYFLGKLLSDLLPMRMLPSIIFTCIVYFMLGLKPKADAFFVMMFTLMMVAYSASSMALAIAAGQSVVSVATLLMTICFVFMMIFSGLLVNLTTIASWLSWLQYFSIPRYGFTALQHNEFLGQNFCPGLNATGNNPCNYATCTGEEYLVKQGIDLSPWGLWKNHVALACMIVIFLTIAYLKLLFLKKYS

[2] = target: T2, OAT1 (Homo sapiens, UniProt Q4U2R8); conditions: in vitro
T2 sequence (Q4U2R8 1-563): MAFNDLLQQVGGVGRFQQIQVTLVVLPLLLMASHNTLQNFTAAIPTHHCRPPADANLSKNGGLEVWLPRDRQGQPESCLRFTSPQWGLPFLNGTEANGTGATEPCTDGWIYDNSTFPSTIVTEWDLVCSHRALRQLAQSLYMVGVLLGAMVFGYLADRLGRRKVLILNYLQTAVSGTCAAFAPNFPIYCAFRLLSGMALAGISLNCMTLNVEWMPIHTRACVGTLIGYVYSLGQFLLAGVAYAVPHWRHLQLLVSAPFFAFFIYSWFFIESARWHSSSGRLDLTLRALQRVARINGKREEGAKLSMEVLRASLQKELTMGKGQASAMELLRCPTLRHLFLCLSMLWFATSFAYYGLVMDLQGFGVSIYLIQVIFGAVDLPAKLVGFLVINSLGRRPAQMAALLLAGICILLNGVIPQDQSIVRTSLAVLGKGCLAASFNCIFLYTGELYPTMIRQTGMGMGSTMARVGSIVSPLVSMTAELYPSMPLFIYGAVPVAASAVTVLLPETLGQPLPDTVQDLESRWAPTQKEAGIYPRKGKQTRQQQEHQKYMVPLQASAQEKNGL

[3] = target: T3, OAT3 (Homo sapiens, UniProt Q8TCC7); conditions: in vitro
T3 sequence (Q8TCC7 1-542): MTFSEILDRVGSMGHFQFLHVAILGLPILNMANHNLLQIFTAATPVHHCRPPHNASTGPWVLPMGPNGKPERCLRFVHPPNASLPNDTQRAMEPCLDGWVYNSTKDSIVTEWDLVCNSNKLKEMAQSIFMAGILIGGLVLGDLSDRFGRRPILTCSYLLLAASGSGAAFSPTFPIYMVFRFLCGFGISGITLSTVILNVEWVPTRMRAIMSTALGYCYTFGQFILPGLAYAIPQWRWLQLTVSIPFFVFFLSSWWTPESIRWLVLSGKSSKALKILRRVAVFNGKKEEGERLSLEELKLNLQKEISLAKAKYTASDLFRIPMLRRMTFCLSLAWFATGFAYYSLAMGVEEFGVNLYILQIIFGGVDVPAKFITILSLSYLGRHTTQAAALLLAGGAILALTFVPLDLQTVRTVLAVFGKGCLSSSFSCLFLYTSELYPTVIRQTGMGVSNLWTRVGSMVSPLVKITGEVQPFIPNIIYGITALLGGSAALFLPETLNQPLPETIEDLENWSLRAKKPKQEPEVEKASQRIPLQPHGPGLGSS

[4] = oral administration, 1.3 mg/kg
[5] = tested on: 5/6 Nx rats; conditions: for effect on aggravation of CKD by hyperuricemia: 5/6 Nx rats dosed with potassium oxonate (750 mg/kg BW)

| Structure (SMILES) | IC50 [1] | IC50 [2] | IC50 [3] | Cmax [4] | oral bioavailability [4] | plasma clearance ([4]; Sprague-Dawley rats) | terminal elimination half-life (T1/2) ([4]; Sprague-Dawley rats) | effect on aggravation of CKD by hyperuricemia [5] | nephroprotection ([5]; 5/6 rats that not received oxonic acid) |
| --- | --- | --- | --- | --- | --- | --- | --- | --- | --- |
| O=C(c1cc(Cl)c(O)c(Cl)c1)N1CS(=O)(=O)c2ccccc21 [Dotinurad, 3-(3,5-dichloro-4-hydroxybenzoyl)-1,1-dioxo-2,3-dihydro-1,3-benzothiazole] | 4.16 µM | 4.08 µM | 1.32 µM | 415 ng/mL | 2.5% | 402.1 mL/min/kg | 1.88 h | – | – |
| Cc1nc(-c2ccc(OCC(C)C)c(C#N)c2)sc1C(=O)O [Febuxostat, febuxostat] | – | – | – | – | – | – | – | prevented the aggravation of the disease | significant nephroprotection |
| Oc1ncnc2[nH]ncc12 [Allopurinol, allopurinol] | – | – | – | – | – | – | – | prevented the aggravation of the disease | – |
